Format in all cases: in vivo
A short description of test [1]: Comparison between soup bases containing the sugar conjugate and the mixture of glucose and glutamyl-threonine. To be noted: soup base with 2 g/L (4.57 mmol/L) versus reference soup with same molar glucose and glutamyl-threonine, 6 panelists. The method, then: A first soup was prepared by adding 2 g/L (4.57 mmol/L) 1-deoxy-D-fructosyl-N-glutamyl-threonine in the soup base described above under Example 4. A second soup was prepared by adding the corresponding same molar concentrations of glucose and glutamyl-threonine to the same soup base. The resulting soups were then evaluated by 6 panelists following the same procedure than described above under Example 4.

Test [2] in a line: Sensory evaluation of the compounds in a chicken soup base. To be noted: chicken soup with 2 g/L versus reference samples, 12 panelists. Here is the method:
Chicken soups were prepared by dissolving 6 g chicken base powder (detailed recipe shown in Table 1) and 1 g monosodium glutamate in 500 mL hot water. 1-Deoxy-D-fructosyl-N-glutamyl-threonine was then added separately at 2 g/L final concentrations.
The sensory evaluation was carried out by 12 panelists, previously screened for their sensory abilities. The panelists assessed a maximum of 6 samples per session. They had Vittel water and crackers as mouth cleansers. In all the cases, the panelists were instructed to evaluate the samples for the following attributes: overall flavor persistency, umami, meaty, grilled/popcorn-like, bread-like, boiled chicken, sweet, bitter, and salty. The samples were coded with random 3-digit numbers according to a balanced presentation design, heated at approximately 65° C. and then presented in 40 mL brown plastic containers and under red light to minimize appearance bias (the serving was approximately 25 mL per sample).
The following statistical tests were used to analyze the sensory raw data: First, the Analysis of Variance (ANOVA) with two factors, products (fixed factor) and subject (random factor) was computed in order to determine if there was any difference among samples. The limit of significance (alpha risk) was set at 5%. […] The limit of significance (alpha risk) was set at 5%.

Test [3] in a line: Sensory evaluation of the compounds in water. The following applies: 2 g/L in water, 12 panelists. Here is the method:
The compounds glutamyl-threonine and 1-deoxy-D-fructosyl-N-glutamyl-threonine were each dissolved and diluted in water in a final concentration of 2 g/L. The solutions were then evaluated by 12 panelists, which were previously screened and selected for their sensory abilities.

Test [4] can be described thus: Seasoning compositions: tomato soups with added compound. The following applies: tomato soup, 0.5 g/L or 2.5 g/L, versus reference soups without the compounds. The method, then:
Tomato soups can be prepared by dissolving 6 g tomato base powder as can be obtained in the commerce in 500 mL hot water. 1-deoxy-D-fructosyl-N-glutamyl-threonine or alternatively 1-deoxy-D-fructosyl-N-glutamyl-serine can be added at a concentration of 0.5 g/L or 2.5 g/L to the soups in order to improve their taste and flavor profile. […] For example, a similar tomato soup can now be prepared which has the same saltiness as the reference tomato soup but comprising less sodium chloride.

Residues, ends and D or L forms follow the SMILES beside them.

Here are results for two compounds from patent publication US20190313679A1, “SUGAR-DIPEPTIDE CONJUGATES AS FLAVOR MOLECULES” (NESTEC S.A., priority 2016, published 2019).

`CC(O)[C@H](NC(=O)[C@H](CCC(=O)O)NCC1(O)OCC(O)C(O)C1O)C(=O)O` (stereo partly drawn) [1-deoxy-D-fructosyl-N-glutamyl-threonine]: in test [1], the “salty and umami taste, tasted with nose-clips” value was “significantly more salty and umami”; the “savory flavors, tasted without nose-clips” value is recorded as “clearly more enhanced savory flavors”. Also, in test [2], the bitterness entry was “decreased”. The saltiness result in test [2] (FIG. 1) is on record as “significantly increased”. In test [2] (clear trend), the meaty taste entry is “improved” and the umami taste result is “improved”. The “perceived saltiness of the aqueous solution versus the reference samples” value in test [3] is listed as “much more salty”. Also, in test [4], the perceived saltiness entry is “more salty” and the umami entry is recorded as “more pronounced umami”.
Consider `C[C@@H](O)[C@H](NC(=O)[C@@H](N)CCC(=O)O)C(=O)O` [glutamyl-threonine, reference compound] (H-Glu-Thr-OH), for which the “taste of the aqueous solution” value in test [3] was “slightly umami and salty”.
